The values that follow come from paper PMC9455738, “Low-Dose Near-Infrared Light-Activated Mitochondria-Targeting Photosensitizers for PDT Cancer Therapy” (International Journal of Molecular Sciences, 2022).

Read-outs that look alike come from different tables or passages of the source.

What all share (type): cell-based, human
For one assay, the system named is A2780 cells. Put plainly: Resazurin cytotoxicity, dark and after white light projector irradiation (>600 nm), A2780. The procedure: (§1) Therefore, the cytotoxicity of the Pc-based compounds was evaluated against different cell lines both under irradiation and in the dark. Compounds LC31, MLC31, and DMLC31Pt, as well as cisplatin were screened against several cancer cell lines representative of human cervical cancer (HeLa), cisplatin-sensitive human ovarian carcinoma (A2780), cisplatin-resistant ovarian endometrioid adenocarcinoma (A2780/CP70), and non-cancerous fibroblast (MRC-5) cell lines. […]
(§2) Human cervical carc in oma cells (HeLa) were cultured in DMEM (Gibco) supplemented with 5% fe t a l calf serum (FCS, Gibco), 100 U/mL penicillin, 100 µg/mL st re pto myc i n . The normal human fe t a l lung fibroblast cell line (MRC‐5) wa s grown in MEM medium (Gibco) supplemented with 10% FCS (Gibco), penicillin (100 U/mL), and st re pto myc i n (100 µg/mL). The human ovarian carc in oma A2780 cell line and a cisplatin‐resistant subline CP70 were cultured in RPMI‐1640 medium (Gibco) supplemented with 10% FCS (Gibco), penicillin (100 U/mL), and st re pto myc in (100 μg/mL). The cells were cultured at 37 °C an d in 5% CO2 humidified at mo sph e re .
(§3) Cy to toxicit y Determination
(§4) The c y totoxic ity of the PSs in the dark and upon light irradiation was evaluated in several cell lines, using a re sa zu r in‐based fluorometric cell viability assay (Sigma‐Aldrich, Darmstadt, Germany). Stock solutions of the Pc agents (5 mM) were prepared in DMF and sto re d in the dark. The sto c k solutions were further diluted with co mp l ete medium to the desired working concentrations. Fo r an exp eriment , 100 µL aliquots of cells in growth medium were seeded in 96‐well plates (density of 2.5 × 10^3 cells/well fo r HeLa, 4 × 10^3 cells/well fo r A2780, and 1.5 × 10^3 cells/well fo r MRC‐5 cells) and incubated at 37 °C, 5% CO2 and 100% humidity. […] At the end of the incubation period, fluorescence of the highly re d fluorescent re so r u f in product (λex = 540 nm, λem = 590 nm) was quantified using a SpectraMax M5 microplate re a d e r (Molecular Device, San Jose, USA). […]
For orientation: The colour change of resazurin is a common sign of viable cells or microbes.

A further assay relates to HeLa cells. The assay is described as follows: Resazurin cytotoxicity, dark and after white light projector irradiation (>600 nm), HeLa. The procedure:
as §1, §2, §3, §4

A further assay deals with A2780/CP70 cells. Put plainly: Resazurin cytotoxicity, dark and after white light projector irradiation (>600 nm), A2780/CP70. The procedure:
as §1, §2, §3, §4

The test system of another assay is MRC-5 cells. The assay is described as follows: Resazurin cytotoxicity, dark and after white light projector irradiation (>600 nm), MRC-5. The procedure:
as §1, §2, §3, §4

For `N.N.[Cl][Pt][Cl]` [cisplatin, Cis-[PtCl2(NH3)2]], the “p.i. A2780” value with A2780 cells (6.96 J cm^−2) worked out at 0.7. The IC50 in the assay with A2780 cells (4 h incubation in the dark, further 72 h incubation, read-out: IC50 A2780 Dark) came to 2.8 µM; in the assay with A2780 cells (4 h incubation, white light projector cutoff below 600 nm, 5.8 mW cm^−2, 6.96 J cm^−2, read-out: IC50 A2780 Light), 4 µM; in the assay with HeLa cells (4 h incubation in the dark, further 72 h incubation, read-out: IC50 HeLa Dark), 1.3 µM; in the assay with HeLa cells (4 h incubation, white light projector cutoff below 600 nm, 5.8 mW cm^−2, 6.96 J cm^−2, further 72 h, read-out: IC50 HeLa Light), 1.7 µM; in the assay with A2780/CP70 cells (A2780/CP70 (cisplatin resistant), 4 h incubation in the dark, read-out: IC50 A2780/CP70 Dark), 102 µM; in the assay on A2780/CP70 cells (A2780/CP70, 4 h incubation, white light projector cutoff below 600 nm, 5.8 mW cm^−2, 6.96 J cm^−2, read-out: IC50 A2780/CP70 Light), 129 µM. The IC50 is 4.5 µM in the assay with MRC-5 cells (MRC-5, 4 h incubation, white light projector cutoff below 600 nm, 5.8 mW cm^−2, 6.96 J cm^−2, read-out: IC50 MRC-5 Light) and 5.4 µM in the assay on MRC-5 cells (MRC-5 non-cancerous fibroblast, 4 h incubation in the dark, read-out: IC50 MRC-5 Dark). Moreover, in the assay on HeLa cells (6.96 J cm^−2), the “p.i. HeLa (phototoxicity index, IC50 dark / IC50 light)” value stood at 0.76. In addition, the “p.i. A2780/CP70” value in the assay with A2780/CP70 cells (A2780/CP70, 6.96 J cm^−2) worked out at 0.79. Also, the “p.i. MRC-5” value with MRC-5 cells (MRC-5, 6.96 J cm^−2) is listed as 1.2.
